Reference: ChEMBL document CHEMBL3217457, “Carbazolepyrrolo[2,1-c][1,4]benzodiazepine conjugates: design, synthesis, and biological evaluation” (Medchemcomm, 2011)

Legend:
PC-3 = test: Growth inhibition of human PC3 cells; type: functional
DU-145 = test: Growth inhibition of human DU145 cells; type: functional
SK-MEL-28 = test: Growth inhibition of human SK-MEL-28 cells; type: functional
SK-MEL-5 = test: Growth inhibition of human SK-MEL-5 cells; type: functional
[1] = Growth inhibition of human UACC257 cells; type: functional; settings: UACC-257
[2] = Growth inhibition of human UACC62 cells; type: functional; settings: UACC-62
A549 [3] = test: Growth inhibition of human A549 cells; type: functional
KB = test: Growth inhibition of human KB cells; type: functional
[4] = Growth inhibition of human Gurav cells; type: functional
A2780 = test: Growth inhibition of human A2780 cells; type: functional
SiHa = test: Growth inhibition of human SiHa cells; type: functional
ZR-75-1 = test: Growth inhibition of human ZR-75-1 cells; type: functional
MCF7 [5] = test: Cell cycle arrest in human MCF7 cells assessed as accumulation at G0 phase at 4 uM after 24 hrs by propidium iodide staining based flow cytometry (reference value: 2.77%); type: functional
MCF7 [6] = test: Cell cycle arrest in human MCF7 cells assessed as accumulation at G1 phase at 4 uM after 24 hrs by propidium iodide staining based flow cytometry (reference value: 57.98%); type: functional
MCF7 [7] = test: Cell cycle arrest in human MCF7 cells assessed as accumulation at S phase at 4 uM after 24 hrs by propidium iodide staining based flow cytometry (reference value: 14.30%); type: functional
MCF7 [8] = test: Cell cycle arrest in human MCF7 cells assessed as accumulation at G2/M phase at 4 uM after 24 hrs by propidium iodide staining based flow cytometry (reference value: 24.95%); type: functional
MCF7 [9] = test: Cell cycle arrest in human MCF7 cells assessed as accumulation at G0/G1 phase at 4 uM after 24 hrs by propidium iodide staining based flow cytometry (reference value: 60.75%); type: functional
Calf thymus DNA = test: Binding affinity to calf thymus DNA assessed as change in melting temperature at compound to DNA ratio of 1:5 after 18 hrs by thermal denaturation analysis; type: nucleic-acid assay; settings: Bos taurus
CCRF-CEM = test: Growth inhibition of human CCRF-CEM cells; type: functional
HL-60(TB) = test: Growth inhibition of human HL-60(TB) cells; type: functional
K562 = test: Growth inhibition of human K562 cells; type: functional
[10] = Growth inhibition of human MOLT4 cells; type: functional; settings: MOLT-4
RPMI-8226 = test: Growth inhibition of human RPMI8226 cells; type: functional
SR = test: Growth inhibition of human SR cells; type: functional
A549 [11] = test: Growth inhibition of human A549/ATCC cells; type: functional
[12] = Growth inhibition of human EKVX cells; type: functional
HOP-62 = test: Growth inhibition of human HOP62 cells; type: functional
[13] = Growth inhibition of human HOP92 cells; type: functional; settings: HOP-92
NCI-H226 = test: Growth inhibition of human NCI-H226 cells; type: functional
NCI-H23 = test: Growth inhibition of human NCI-H23 cells; type: functional
NCI-H322M = test: Growth inhibition of human NCI-H322M cells; type: functional
NCI-H460 = test: Growth inhibition of human NCI-H460 cells; type: functional
NCI-H522 = test: Growth inhibition of human NCI-H522 cells; type: functional
COLO 205 = test: Growth inhibition of human COLO205 cells; type: functional
[14] = Growth inhibition of human HCC2998 cells; type: functional; settings: HCC 2998
HCT-116 = test: Growth inhibition of human HCT116 cells; type: functional
[15] = Growth inhibition of human HCT15 cells; type: functional; settings: HCT-15
HT-29 = test: Growth inhibition of human HT-29 cells; type: functional
KM12 = test: Growth inhibition of human KM12 cells; type: functional
SW-620 = test: Growth inhibition of human SW620 cells; type: functional
SF-268 = test: Growth inhibition of human SF268 cells; type: functional
[16] = Growth inhibition of human SF539 cells; type: functional; settings: SF-539
SNB-19 = test: Growth inhibition of human SNB19 cells; type: functional
SNB-75 = test: Growth inhibition of human SNB75 cells; type: functional
U-251 = test: Growth inhibition of human U251 cells; type: functional
[17] = Growth inhibition of human LOXIMVI cells; type: functional; settings: LOX IMVI
Malme-3M = test: Growth inhibition of human MALME-3M cells; type: functional
M14 = test: Growth inhibition of human M14 cells; type: functional
SK-MEL-2 = test: Growth inhibition of human SK-MEL-2 cells; type: functional
IGROV-1 = test: Growth inhibition of human IGROV1 cells; type: functional
[18] = Growth inhibition of human OVCAR3 cells; type: functional; settings: OVCAR-3
[19] = Growth inhibition of human OVCAR4 cells; type: functional; settings: OVCAR-4
[20] = Growth inhibition of human OVCAR5 cells; type: functional; settings: OVCAR-5
[21] = Growth inhibition of human OVCAR8 cells; type: functional; settings: OVCAR-8
SK-OV-3 = test: Growth inhibition of human SKOV3 cells; type: functional
786-0 = test: Growth inhibition of human 786-0 cells; type: functional
A498 = test: Growth inhibition of human A498 cells; type: functional
ACHN = test: Growth inhibition of human ACHN cells; type: functional
CAKI-1 = test: Growth inhibition of human CAKI-1 cells; type: functional
[22] = Growth inhibition of human RXF393 cells; type: functional; settings: RXF 393
SN12C = test: Growth inhibition of human SN12C cells; type: functional
TK-10 = test: Growth inhibition of human TK10 cells; type: functional
[23] = Growth inhibition of human UO31 cells; type: functional; settings: UO-31
MCF7 [24] = test: Growth inhibition of human MCF7 cells; type: functional
[25] = Growth inhibition of human MDA-MB cells; type: functional
[26] = Growth inhibition of human Hs 578T cells; type: functional
MDA-MB-435 = test: Growth inhibition of human MDA-MB-435 cells; type: functional
[27] = Growth inhibition of human BT549 cells; type: functional; settings: BT-549
T47D = test: Growth inhibition of human T47D cells; type: functional
MDA-MB-468 = test: Growth inhibition of human MDA-MB-468 cells; type: functional

COc1cc2c(cc1OCCCCCn1c3ccccc3c3ccccc31)N=C[C@@H]1CCCN1C2=O
GI50 (PC-3): 2.3 µM | GI50 (DU-145): 2.23 µM | GI50 (SK-MEL-28): 1.8 µM | GI50 (SK-MEL-5): 1.73 µM | GI50 [1]: 2.29 µM | GI50 [2]: 1.86 µM | GI50 (A549 [3]): 1.42 µM | GI50 (KB): 1.8 µM | GI50 [4]: 1.61 µM | GI50 (A2780): 1.32 µM | GI50 (SiHa): 1.68 µM | GI50 (ZR-75-1): 1.76 µM | Activity (MCF7 [5]): 3.45% | Activity (MCF7 [6]): 68.24% | Activity (MCF7 [7]): 13.03% | Activity (MCF7 [8]): 15.38% | Activity (MCF7 [9]): 71.69% | ΔTm (Calf thymus DNA): 4.9 °C | GI50 (CCRF-CEM): 1.97 µM | GI50 (HL-60(TB)): 1.72 µM | GI50 (K562): 2.6 µM | GI50 [10]: 2.15 µM | GI50 (RPMI-8226): 1.72 µM | GI50 (SR): 1.54 µM | GI50 (A549 [11]): 1.57 µM | GI50 [12]: 5.27 µM | GI50 (HOP-62): 1.8 µM | GI50 [13]: 1.31 µM | GI50 (NCI-H226): 2.49 µM | GI50 (NCI-H23): 2.69 µM | GI50 (NCI-H322M): 3.83 µM | GI50 (NCI-H460): 1.96 µM | GI50 (NCI-H522): 1.65 µM | GI50 (COLO 205): 1.64 µM | GI50 [14]: 1.71 µM | GI50 (HCT-116): 1.65 µM | GI50 [15]: 1.67 µM | GI50 (HT-29): 2.08 µM | GI50 (KM12): 1.96 µM | GI50 (SW-620): 1.85 µM | GI50 (SF-268): 1.91 µM | GI50 [16]: 1.85 µM | GI50 (SNB-19): 2.05 µM | GI50 (SNB-75): 1.05 µM | GI50 (U-251): 1.59 µM | GI50 [17]: 2.08 µM | GI50 (Malme-3M): 2.2 µM | GI50 (M14): 2.1 µM | GI50 (SK-MEL-2): 1.67 µM | GI50 (IGROV-1): 2.08 µM | GI50 [18]: 1.88 µM | GI50 [19]: 3.09 µM | GI50 [20]: 2.42 µM | GI50 [21]: 2.55 µM | GI50 (SK-OV-3): 4.57 µM | GI50 (786-0): 1.73 µM | GI50 (A498): 1.74 µM | GI50 (ACHN): 1.77 µM | GI50 (CAKI-1): 1.93 µM | GI50 [22]: 4.34 µM | GI50 (SN12C): 1.94 µM | GI50 (TK-10): 2.25 µM | GI50 [23]: 1.52 µM | GI50 (MCF7 [24]): 1.64 µM | GI50 [25]: 2.14 µM | GI50 [26]: 1.97 µM | GI50 (MDA-MB-435): 1.73 µM | GI50 [27]: 2.03 µM | GI50 (T47D): 2.79 µM | GI50 (MDA-MB-468): 2.26 µM
